From ChEMBL document CHEMBL1151134, “Anti-AIDS agents, 1. Isolation and characterization of four new tetragalloylquinic acids as a new class of HIV reverse transcriptase inhibitors from tannic acid” (J Nat Prod, 1989)

Key:
[1] = tested on: Human immunodeficiency virus; assay: Inhibition of HIV reverse transcriptase assessed as incorporation of [3H]dTMP at 100 nM
[2] = tested on: Human immunodeficiency virus 1; assay: Antiviral activity against HIV1 3B replication in human H9 cells at 25 uM after 3 days by p24 antigen capture assay relative to control; format: functional; conditions: Human immunodeficiency virus 1, 3B, H9, 72 h
H9 [3] = assay: Cytotoxicity against human H9 cells at 6.25 uM; format: cell-based; conditions: h9, 6.25 µM
[4] = Cytotoxicity against human H9 cells at 25 uM; format: cell-based; conditions: read-out: INH
[5] = tested on: Human immunodeficiency virus; assay: Inhibition of HIV reverse transcriptase assessed as incorporation of [3H]dTMP at 30 uM
[6] = tested on: Human immunodeficiency virus 1; assay: Antiviral activity against HIV1 3B replication in human H9 cells at 6.25 uM after 3 days by p24 antigen capture assay relative to control; format: functional; conditions: Human immunodeficiency virus 1, 3B, H9, 72 h
H9 [7] = assay: Cytotoxicity against human H9 cells at 1.25 uM; format: cell-based; conditions: h9, 1.25 µM
[8] = tested on: Human immunodeficiency virus 1; assay: Antiviral activity against HIV1 3B replication in human H9 cells at 1.25 uM after 3 days by p24 antigen capture assay relative to control; format: functional; conditions: Human immunodeficiency virus 1, 3B, H9, 72 h
[9] = tested on: Human immunodeficiency virus; assay: Inhibition of HIV reverse transcriptase assessed as incorporation of [3H]dTMP at 100 uM
[10] = tested on: Human immunodeficiency virus; assay: Inhibition of HIV reverse transcriptase assessed as incorporation of [3H]dTMP at 10 uM
[11] = biological target: DNA polymerase beta (Homo sapiens) (UniProt P06746); assay: Inhibition of human DNA polymerase beta
[12] = biological target: T1, DNA polymerase alpha catalytic subunit (Homo sapiens) (UniProt P09884); assay: Inhibition of human DNA polymerase alpha
T1 sequence (whole entry): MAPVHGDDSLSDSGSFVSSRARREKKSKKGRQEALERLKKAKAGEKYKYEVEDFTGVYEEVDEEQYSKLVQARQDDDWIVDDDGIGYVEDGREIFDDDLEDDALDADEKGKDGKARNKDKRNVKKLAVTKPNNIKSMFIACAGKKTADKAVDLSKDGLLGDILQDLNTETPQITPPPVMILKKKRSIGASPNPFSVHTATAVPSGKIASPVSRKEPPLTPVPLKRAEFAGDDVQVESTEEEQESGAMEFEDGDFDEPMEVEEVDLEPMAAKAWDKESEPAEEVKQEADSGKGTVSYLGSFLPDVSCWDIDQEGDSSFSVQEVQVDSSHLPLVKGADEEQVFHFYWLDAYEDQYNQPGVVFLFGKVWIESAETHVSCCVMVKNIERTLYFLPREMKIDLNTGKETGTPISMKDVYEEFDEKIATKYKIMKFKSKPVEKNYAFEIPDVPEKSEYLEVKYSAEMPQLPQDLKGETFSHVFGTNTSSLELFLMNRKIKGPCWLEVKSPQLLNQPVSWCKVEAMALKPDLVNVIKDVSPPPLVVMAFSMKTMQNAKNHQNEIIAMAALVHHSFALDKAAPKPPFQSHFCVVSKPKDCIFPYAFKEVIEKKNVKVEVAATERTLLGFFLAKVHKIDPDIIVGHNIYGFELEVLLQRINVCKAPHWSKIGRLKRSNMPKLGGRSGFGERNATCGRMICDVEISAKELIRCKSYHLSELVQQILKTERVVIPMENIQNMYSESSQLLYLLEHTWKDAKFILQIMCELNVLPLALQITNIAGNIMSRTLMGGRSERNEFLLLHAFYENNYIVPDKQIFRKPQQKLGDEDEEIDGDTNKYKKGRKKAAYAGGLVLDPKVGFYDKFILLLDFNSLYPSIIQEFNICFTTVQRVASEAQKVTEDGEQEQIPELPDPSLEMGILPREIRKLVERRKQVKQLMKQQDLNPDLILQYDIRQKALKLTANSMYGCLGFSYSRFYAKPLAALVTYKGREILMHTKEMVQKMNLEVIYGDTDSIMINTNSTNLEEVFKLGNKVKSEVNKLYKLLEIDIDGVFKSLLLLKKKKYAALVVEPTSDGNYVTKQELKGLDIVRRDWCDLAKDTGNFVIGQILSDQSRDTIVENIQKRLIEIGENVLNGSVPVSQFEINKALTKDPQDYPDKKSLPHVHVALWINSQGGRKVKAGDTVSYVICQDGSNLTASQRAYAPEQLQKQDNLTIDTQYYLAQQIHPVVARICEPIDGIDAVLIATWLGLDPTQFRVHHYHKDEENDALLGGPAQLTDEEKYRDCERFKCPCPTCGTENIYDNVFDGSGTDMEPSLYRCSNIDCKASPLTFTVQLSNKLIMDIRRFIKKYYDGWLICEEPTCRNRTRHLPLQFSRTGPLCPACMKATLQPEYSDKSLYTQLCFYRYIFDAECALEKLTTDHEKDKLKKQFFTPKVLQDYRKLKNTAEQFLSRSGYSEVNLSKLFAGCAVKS

[13] = biological target: T2, DNA polymerase subunit gamma-1 (Homo sapiens) (UniProt P54098); assay: Inhibition of human DNA polymerase gamma
T2 sequence (whole entry): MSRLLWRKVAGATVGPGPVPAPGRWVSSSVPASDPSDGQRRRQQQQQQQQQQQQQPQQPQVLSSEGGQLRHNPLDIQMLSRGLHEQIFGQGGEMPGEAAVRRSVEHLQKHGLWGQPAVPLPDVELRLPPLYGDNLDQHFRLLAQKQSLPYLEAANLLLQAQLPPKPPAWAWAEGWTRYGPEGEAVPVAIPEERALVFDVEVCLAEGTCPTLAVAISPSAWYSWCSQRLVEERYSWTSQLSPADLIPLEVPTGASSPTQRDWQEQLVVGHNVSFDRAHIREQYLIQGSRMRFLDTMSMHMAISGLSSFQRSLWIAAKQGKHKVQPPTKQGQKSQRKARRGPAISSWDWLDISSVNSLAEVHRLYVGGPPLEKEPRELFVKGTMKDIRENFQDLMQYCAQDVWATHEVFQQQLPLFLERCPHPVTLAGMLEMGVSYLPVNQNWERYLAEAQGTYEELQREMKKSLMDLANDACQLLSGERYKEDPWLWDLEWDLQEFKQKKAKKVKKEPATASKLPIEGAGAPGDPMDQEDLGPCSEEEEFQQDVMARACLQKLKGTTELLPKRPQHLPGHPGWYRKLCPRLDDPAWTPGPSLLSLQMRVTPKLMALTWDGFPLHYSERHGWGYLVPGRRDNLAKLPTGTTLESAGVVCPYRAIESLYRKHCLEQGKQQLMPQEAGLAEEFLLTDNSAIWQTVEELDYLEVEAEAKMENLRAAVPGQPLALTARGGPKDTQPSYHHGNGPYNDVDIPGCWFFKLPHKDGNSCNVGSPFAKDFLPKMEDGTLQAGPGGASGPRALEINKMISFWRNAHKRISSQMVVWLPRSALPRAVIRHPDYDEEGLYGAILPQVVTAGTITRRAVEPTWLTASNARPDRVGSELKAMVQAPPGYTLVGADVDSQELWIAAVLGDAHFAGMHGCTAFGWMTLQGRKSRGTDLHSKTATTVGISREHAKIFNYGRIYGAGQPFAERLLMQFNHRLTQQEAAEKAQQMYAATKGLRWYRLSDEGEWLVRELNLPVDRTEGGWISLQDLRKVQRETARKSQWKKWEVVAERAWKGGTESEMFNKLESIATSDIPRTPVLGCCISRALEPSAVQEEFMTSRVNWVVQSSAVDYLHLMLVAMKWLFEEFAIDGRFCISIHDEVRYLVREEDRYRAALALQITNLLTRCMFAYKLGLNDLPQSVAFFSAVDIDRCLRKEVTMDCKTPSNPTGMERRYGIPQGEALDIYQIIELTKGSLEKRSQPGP

[14] = tested on: Human immunodeficiency virus; assay: Inhibition of HIV reverse transcriptase
[15] = tested on: Human immunodeficiency virus; assay: Inhibition of HIV reverse transcriptase assessed as incorporation of [3H]dTMP at 100 ug/ml
[16] = tested on: Human immunodeficiency virus; assay: Inhibition of HIV reverse transcriptase assessed as incorporation of [3H]dTMP at 0.6 uM
[17] = tested on: Human immunodeficiency virus 1; assay: Antiviral activity against HIV1 3B replication in human H9 cells at 7.7 uM after 3 days by p24 antigen capture assay relative to control; format: functional; conditions: Human immunodeficiency virus 1, 3B, H9, 72 h
[18] = tested on: Human immunodeficiency virus 1; assay: Antiviral activity against HIV1 3B replication in human H9 cells at 1.5 uM after 3 days by p24 antigen capture assay relative to control; format: functional; conditions: Human immunodeficiency virus 1, 3B, H9, 72 h
[19] = tested on: Human immunodeficiency virus 1; assay: Antiviral activity against HIV1 3B replication in human H9 cells at 30.8 uM after 3 days by p24 antigen capture assay relative to control; format: functional; conditions: Human immunodeficiency virus 1, 3B, H9, 72 h

Row | SMILES | inhibition [5] [%] | inhibition [9] [%] | inhibition [10] [%] | inhibition at 25 µM [2] [%] | Activity (H9 [3]) | cytotoxicity at 25 µM [4] [%] | inhibition at 6.25 µM [6] [%] | Activity (H9 [7]) | inhibition at 1.25 µM [8] [%] | other results
1 | Cc1cn([C@H]2C[C@H](N=[N+]=[N-])[C@@H](COP(=O)(O)OP(=O)(O)OP(=O)(O)O)O2)c(=O)[nH]c1=O | – | – | – | – | – | – | – | – | – | inhibition [1]: 64%
2 | O=C(O[C@@H]1C[C@](OC(=O)c2cc(O)c(O)c(O)c2)(C(=O)O)C[C@@H](OC(=O)c2cc(O)c(O)c(O)c2)[C@H]1OC(=O)c1cc(O)c(O)c(O)c1)c1cc(O)c(O)c(O)c1 | 84 | 94 | 36 | 66 | Non-toxic | 25 | 52 | Non-toxic | 15 | –
3 | O=C(Oc1c(O)cc(C(=O)O[C@@H]2C[C@@](O)(C(=O)O)C[C@@H](OC(=O)c3cc(O)c(O)c(O)c3)[C@@H]2OC(=O)c2cc(O)c(O)c(O)c2)cc1O)c1cc(O)c(O)c(O)c1 | 70 | 89 | 55 | 63 | Non-toxic | 0 | 50 | Non-toxic | 28 | ID50 [11]: 21 µM; ID50 [12]: 0.065 µM; ID50 [13]: 2.5 µM; ID50 [14]: 29 µM
4 | O=C(OC[C@H]1O[C@@H](OC(=O)c2cc(O)c(O)c(OC(=O)c3cc(O)c(O)c(O)c3)c2)[C@H](OC(=O)c2cc(O)c(O)c(OC(=O)c3cc(O)c(O)c(O)c3)c2)[C@@H](OC(=O)c2cc(O)c(O)c(OC(=O)c3cc(O)c(O)c(O)c3)c2)[C@@H]1OC(=O)c1cc(O)c(O)c(OC(=O)c2cc(O)c(O)c(O)c2)c1)c1cc(O)c(O)c(OC(=O)c2cc(O)c(O)c(O)c2)c1 | – | – | – | – | – | – | – | – | – | inhibition [15]: 74%
5 | O=C(O)P(=O)(O)O | – | – | – | – | – | – | – | – | – | inhibition [16]: 63%

More lines, main results first:

Row | inhibition [5] [%] | inhibition [9] [%] | inhibition [10] [%] | SMILES | inhibition at 25 µM [2] [%] | Activity (H9 [3]) | cytotoxicity at 25 µM [4] [%] | inhibition at 6.25 µM [6] [%] | Activity (H9 [7]) | inhibition at 1.25 µM [8] [%] | other results
6 | 48 | 58 | 39 | O=C(O[C@@H]1C[C@](O)(C(=O)O)C[C@@H](OC(=O)c2cc(O)c(O)c(O)c2)[C@H]1OC(=O)c1cc(O)c(O)c(O)c1)c1cc(O)c(O)c(O)c1 | – | Non-toxic | 14 | – | Non-toxic | – | inhibition at 7.7 µM [17]: 59%; inhibition at 1.5 µM [18]: 26%; inhibition at 30.8 µM [19]: 70%
7 | 73 | 90 | 53 | O=C(Oc1c(O)cc(C(=O)O[C@H]2[C@H](OC(=O)c3cc(O)c(O)c(O)c3)C[C@](O)(C(=O)O)C[C@H]2OC(=O)c2cc(O)c(O)c(O)c2)cc1O)c1cc(O)c(O)c(O)c1 | 71 | Non-toxic | 14 | 57 | Non-toxic | 34 | –
8 | 63 | 84 | 50 | O=C(Oc1c(O)cc(C(=O)O[C@@H]2C[C@](O)(C(=O)O)C[C@@H](OC(=O)c3cc(O)c(O)c(O)c3)[C@H]2OC(=O)c2cc(O)c(O)c(O)c2)cc1O)c1cc(O)c(O)c(O)c1 | 61 | Non-toxic | 25 | 44 | Non-toxic | 13 | –
